Counter-ions that a name gives are not always drawn.

Consider 19 compounds from patent US8933233B2, “1,3,4-oxadiazole and 1,3,4-thiadiazole β-lactamase inhibitors” (priority 2012, dated 2015).

In this assay the test system is bacterial strains that express the class D cephalosporinase OXA-15. Description: Synergy MIC / standard BLI potentiation MIC assay, strains expressing OXA-15. The format is cell-based, E. coli. The settings on record: in presence of a β-lactam; comparator Avibactam (CCC). Here is the method:
Unless otherwise indicated, the activity of the BLI compounds can be described by the MIC value obtained from a Synergy MIC assay or a BLI potentiation assay (e.g as described herein), both of which are run in the presence of a β-lactam.
The experimental protocol was performed according to Clinical and Laboratory Standards Institute (CLSI) guidelines with modifications as described below (CLSI guidelines can be derived from the CLSI document M07-A9 published in January 2012: “Methods for Dilution Antimicrobial Susceptibility Tests for Bacteria That Grow Aerobically; Approved Standard-Ninth Edition”).
To prepare for MIC testing, frozen glycerol stocks of clinical isolates (Klebsiella pneumoniae, Eschericia coli, Enterobacter spp, Citrobacter spp, or Pseudomonas aeruginosa) were used to streak for isolated colonies on rich, non-selective, tryptic soy agar containing 5% sheep's blood (TSAB). Frozen glycerol stocks of laboratory engineered, isogenic E. coli strains, which contain cloned β-lactamase expressing plasmids were used to streak for isolated colonies on rich, selective LB agar supplemented with 25 μg/mL tetracycline to maintain the plasmid. All strains were incubated at 37° C. for 18-24 hrs.
On the day of testing, primary cultures were started by scraping off 5-10 colonies from the TSAB plates containing clinical strains or the tetracycline supplemented LB plates containing engineered strains. The clinical strain material was suspended in ˜5 mL of cation adjusted Mueller Hinton Broth (CAMHB) in 14 mL culture tubes. The engineered strain material was suspended in CAMHB (supplemented with 25 μg/mL tetracycline) in 14 mL culture tubes. All strains were incubated at 37° C. with aeration (200 rpm) for ˜2 hrs until the optical density at 600 nm (OD600) was ≧0.1.
The two compound components of the assay were each diluted in CAMHB and added to the 96-well broth microdilution assay plates. 50 μL of the β-lactam was added to each well of the assay plate in 2-fold dilutions with final concentrations ranging from 128 to 0.13 μg/mL. 25 μL of the BLI compound was added to all wells in the broth microdilution plates at a final concentration of 4 μg/mL. Inoculum cultures were prepared by standardizing the primary cultures to OD600=0.1 and then adding 20 μL of the adjusted primary culture per 1 mL CAMHB for clinical strains or CAMHB (supplemented with tetracycline at 100 μg/mL) for engineered strains, so that the final inoculum density was ˜10^5 colony forming units per milliliter. Diluted inoculum cultures were used to inoculate 25 μL per well in 96-well broth microdilution assay plates. The final volume of each well was 100 μL and contained a β-lactam at different concentrations, a BLIcompound at 4 μg/mL concentration, the bacterial culture at an OD600 of approximately 0.001 and when necessary tetracycline at 25 μg/mL.
Plates were incubated for 18-20 hours at 37° C. with aeration (200 rpm). Following incubation, growth was confirmed visually placing plates over a viewing apparatus (stand with a mirror underneath) and then OD600 was measured using a SpectraMax 340PC384 plate reader (Molecular Devices, Sunnyvale, Calif.). Growth was defined as turbidity that could be detected with the naked eye or achieving minimum OD600 of 0.1. MIC values were defined as the lowest concentration producing no visible turbidity.
The synergy MIC (sMIC) assay determines the concentration of the BLI required to potentiate the activity of a fixed concentration of a β-lactam antibiotic against β-lactamase producing bacterial strains. The experimental protocol was performed according to Clinical and Laboratory Standards Institute (CLSI) guidelines with modifications as described below (CLSI guidelines can be derived from the CLSI document M07-A9 published in January 2012: “Methods for Dilution Antimicrobial Susceptibility Tests for Bacteria That Grow Aerobically; Approved Standard-Ninth Edition”). […]

For the compound `N=C(N)N1CCC(c2nnc([C@@H]3CC[C@@H]4CN3C(=O)N4OS(=O)(=O)O)o2)CC1` [Compound 712, (2S,5R)-2-(5-(1-carbamimidoylpiperidin-4-yl)-1,3,4-oxadiazol-2-yl)-7-oxo-1,6-diazabicyclo[3.2.1]octan-6-yl hydrogen sulfate], the “activity against bacterial strains that express OXA-15, compared with Avibactam” value (from here on “activity … compared with Avibactam”) is on record as “more active than Avibactam”. The same measure for `O=C1N2C[C@@H](CC[C@H]2c2nnc(C3CCNCC3)s2)N1OS(=O)(=O)O` [Compound 719, (2S,5R)-7-oxo-2-(5-(piperidin-4-yl)-1,3,4-thiadiazol-2-yl)-1,6-diazabicyclo[3.2.1]octan-6-yl hydrogen sulfate]: “more active than Avibactam”; for `NCC(N)c1nnc([C@@H]2CC[C@@H]3CN2C(=O)N3OS(=O)(=O)O)o1` (stereo partly drawn) [Compound 717, (2S,5R)-2-(5-(1,2-diaminoethyl)-1,3,4-oxadiazol-2-yl)-7-oxo-1,6-diazabicyclo[3.2.1]octan-6-yl hydrogen sulfate]: “more active than Avibactam”.

Consider `NCC(O)Cc1nnc([C@@H]2CC[C@@H]3CN2C(=O)N3OS(=O)(=O)O)o1` (stereo partly drawn) [Compound 733, (2S,5R)-2-(5-(3-amino-2-hydroxypropyl)-1,3,4-oxadiazol-2-yl)-7-oxo-1,6-diazabicyclo[3.2.1]octan-6-yl hydrogen sulfate], for which the “activity … compared with Avibactam” value is recorded as “more active than Avibactam”.

On to `NC1CCN(c2nnc([C@@H]3CC[C@@H]4CN3C(=O)N4OS(=O)(=O)O)o2)CC1` [Compound 773, (2S,5R)-2-(5-(4-aminopiperidin-1-yl)-1,3,4-oxadiazol-2-yl)-7-oxo-1,6-diazabicyclo[3.2.1]octan-6-yl hydrogen sulfate], for which the “activity … compared with Avibactam” value is on record as “more active than Avibactam”. In the case of `N=C(N)NCCCc1nnc([C@@H]2CC[C@@H]3CN2C(=O)N3OS(=O)(=O)O)o1` [Compound 714, (2S,5R)-2-(5-(3-guanidinopropyl)-1,3,4-oxadiazol-2-yl)-7-oxo-1,6-diazabicyclo[3.2.1]octan-6-yl hydrogen sulfate], the “activity … compared with Avibactam” value is listed as “more active than Avibactam”. The same measure for `N[C@H]1CC[C@H](c2nnc([C@@H]3CC[C@@H]4CN3C(=O)N4OS(=O)(=O)O)o2)CC1` [Compound 781, (2S,5R)-2-(5-((1r,4S)-4-aminocyclohexyl)-1,3,4-oxadiazol-2-yl)-7-oxo-1,6-diazabicyclo[3.2.1]octan-6-yl hydrogen sulfate]: “more active than Avibactam”; for `O=C1N2C[C@@H](CC[C@H]2c2nnc(CNC3CCNCC3)o2)N1OS(=O)(=O)O` [Compound 769, (2S,5R)-7-oxo-2-(5-((piperidin-4-ylamino)methyl)-1,3,4-oxadiazol-2-yl)-1,6-diazabicyclo[3.2.1]octan-6-yl hydrogen sulfate]: “more active than Avibactam”. In the case of `N[C@H]1C[C@H](NCc2nnc([C@@H]3CC[C@@H]4CN3C(=O)N4OS(=O)(=O)O)o2)C1` [Compound 757, (2S,5R)-2-(5-((((1r,3S)-3-aminocyclobutyl)amino)methyl)-1,3,4-oxadiazol-2-yl)-7-oxo-1,6-diazabicyclo[3.2.1]octan-6-yl hydrogen sulfate] it was “more active than Avibactam”; in that of `O=C1N2C[C@@H](CC[C@H]2c2nnc(CC3CNC3)o2)N1OS(=O)(=O)O` [Compound 725, (2S,5R)-2-(5-(azetidin-3-ylmethyl)-1,3,4-oxadiazol-2-yl)-7-oxo-1,6-diazabicyclo[3.2.1]octan-6-yl hydrogen sulfate], “more active than Avibactam”. In the case of `N=C(N)N[C@H]1C[C@H](c2nnc([C@@H]3CC[C@@H]4CN3C(=O)N4OS(=O)(=O)O)o2)C1` [Compound 748, (2S,5R)-2-(5-((1r,3S)-3-guanidinocyclobutyl)-1,3,4-oxadiazol-2-yl)-7-oxo-1,6-diazabicyclo[3.2.1]octan-6-yl hydrogen sulfate] it was “more active than Avibactam”. For the compound `N[C@H]1CC[C@@H](c2nnc([C@@H]3CC[C@@H]4CN3C(=O)N4OS(=O)(=O)O)o2)CC1` [Compound 780, (2S,5R)-2-(5-((1s,4R)-4-aminocyclohexyl)-1,3,4-oxadiazol-2-yl)-7-oxo-1,6-diazabicyclo[3.2.1]octan-6-yl hydrogen sulfate], the “activity … compared with Avibactam” value is given as “more active than Avibactam”. The same measure for `NCCNCCc1nnc([C@@H]2CC[C@@H]3CN2C(=O)N3OS(=O)(=O)O)o1` [Compound 716, (2S,5R)-2-(5-(2-((2-aminoethyl)amino)ethyl)-1,3,4-oxadiazol-2-yl)-7-oxo-1,6-diazabicyclo[3.2.1]octan-6-yl hydrogen sulfate]: “more active than Avibactam”.

Take `N=C(N)NCc1nnc([C@@H]2CC[C@@H]3CN2C(=O)N3OS(=O)(=O)O)o1` [Compound 704, (2S,5R)-2-(5-(guanidinomethyl)-1,3,4-oxadiazol-2-yl)-7-oxo-1,6-diazabicyclo[3.2.1]octan-6-yl hydrogen sulfate]: the “activity … compared with Avibactam” value is listed as “more active than Avibactam”. For the compound `NCC(O)c1nnc([C@@H]2CC[C@@H]3CN2C(=O)N3OS(=O)(=O)O)o1` (stereo partly drawn) [Compound 715, (2S,5R)-2-(5-(2-amino-1-hydroxyethyl)-1,3,4-oxadiazol-2-yl)-7-oxo-1,6-diazabicyclo[3.2.1]octan-6-yl hydrogen sulfate], the “activity … compared with Avibactam” value is “more active than Avibactam”. In the case of `O=C1N2C[C@@H](CC[C@H]2c2nnc(N3CCNCC3)o2)N1OS(=O)(=O)O` [Compound 713, (2S,5R)-7-oxo-2-(5-(piperazin-1-yl)-1,3,4-oxadiazol-2-yl)-1,6-diazabicyclo[3.2.1]octan-6-yl hydrogen sulfate], the “activity … compared with Avibactam” value is on record as “more active than Avibactam”. Take `O=C1N2C[C@@H](CC[C@H]2c2nnc(CCCN3CCNCC3)o2)N1OS(=O)(=O)O` [Compound 792, (2S,5R)-7-oxo-2-(5-(3-(piperazin-1-yl)propyl)-1,3,4-oxadiazol-2-yl)-1,6-diazabicyclo[3.2.1]octan-6-yl hydrogen sulfate]: the “activity … compared with Avibactam” value was “more active than Avibactam”.

`O=C1N2C[C@@H](CC[C@H]2c2nnc(N3CCNCC3)s2)N1OS(=O)(=O)O` [Compound 797, (2S,5R)-7-oxo-2-(5-(piperazin-1-yl)-1,3,4-thiadiazol-2-yl)-1,6-diazabicyclo[3.2.1]octan-6-yl hydrogen sulfate]: the “activity … compared with Avibactam” value was “more active than Avibactam”.

As for `Nc1nnc([C@@H]2CC[C@@H]3CN2C(=O)N3OS(=O)(=O)O)o1` [Compound 707, (2S,5R)-2-(5-amino-1,3,4-oxadiazol-2-yl)-7-oxo-1,6-diazabicyclo[3.2.1]octan-6-yl hydrogen sulfate], the “activity … compared with Avibactam” value is recorded as “more active than Avibactam”.
